Laboratory results: patent publication US6914045B2, “Glycopeptide antibiotics” (Wyeth Holdings Corporation, priority 2001, dated 2005)
In brackets after ≈: the same amount, converted by molar mass.

Assays:
Test in all cases: in vitro antibacterial evaluation, MIC by broth dilution
Type in all cases: cell-based
Staphylococcus sp. = conditions: broth dilution, 18 hours at 35° C.; for MIC Staphylococcus aureus (ATCC 29213): strain ATCC 29213; for MIC Staphylococcus aureus (GC 1131): strain GC 1131; for MIC Staphylococcus aureus (GC 3051): strain GC 3051; for MIC Staphylococcus aureus (GC 3053): strain GC 3053; for MIC Staphylococcus aureus (GC 4541): strain GC 4541; for MIC Staphylococcus aureus (GC 4542): strain GC 4542; for MIC Staphylococcus aureus-SMITH (GC 4543): strain GC 4543; for MIC Staphylococcus aureus (GC 4544): strain GC 4544; for MIC Staphylococcus aureus (GC 4545): strain GC 4545; for MIC Staphylococcus haemolyticus (GC 4546): strain GC 4546; for MIC Coagulase Negative Staphylococcus (GC 4547): strain GC 4547; for MIC Coagulase Negative Staphylococcus (GC 4548): strain GC 4548; for MIC Coagulase Negative Staphylococcus (GC 4549): strain GC 4549; for MIC Coagulase Negative Staphylococcus (GC 4551): strain GC 4551; for MIC Coagulase Negative Staphylococcus (GC 6257): strain GC 6257
Description: (§1) Methods for in vitro Antibacterial Evaluation (Table 1)
(§2) The minimum inhibitory concentration (MIC), the lowest concentration of the antibiotic which inhibits growth of the test organism, is determined by the broth dilution method using Muller-Hinton II […] (Baltimore Biological Laboratories) following the recommendations of the National Committee for Clinical Laboratory Standards [Methods for dilution antimicrobial susceptibility tests for bacteria that grow aerobically, approved standard M7-A2, National Committee for Clinical Laboratory Standards, Villanova, Pa.].
(§3) An inoculum level of 5×10^5 CFU/mL, and a range of antibiotic concentrations (64-0.06 μg/mL) is used. […] The test organisms include a spectrum of Gram-positive bacteria comprised of Staphylococcus sp., Streptococcus sp. and Enterococcus sp. These organisms include recent clinical isolates that are resistant to methicillin, penicillin and/or vancomycin.

Enterococcus sp. = conditions: broth dilution, 18 hours at 35° C.; for MIC Enterococcus faecalis (ATCC 29212): strain ATCC 29212; for MIC Enterococcus faecalis (GC 2242): strain GC 2242; for MIC Enterococcus faecium (GC 2243): strain GC 2243; for MIC Enterococcus faecalis (GC 2691): strain GC 2691; for MIC Enterococcus faecalis (GC 3059): strain GC 3059; for MIC Enterococcus faecalis (GC 4552): strain GC 4552; for MIC Enterococcus faecalis (GC 4553): strain GC 4553; for MIC Enterococcus faecalis (GC 4554): strain GC 4554; for MIC Enterococcus faecium (GC 4556): strain GC 4556; for MIC Enterococcus faecium (GC 4557): strain GC 4557; for MIC Enterococcus avium (GC 4558): strain GC 4558; for MIC Enterococcus faecalis (GC 6189): strain GC 6189
Description: as §1, §2, §3

Streptococcus sp. = conditions: broth dilution, 18 hours at 35° C.; for MIC Streptococcus pneumoniae (ATCC 6301): strain ATCC 6301; for MIC Streptococcus pneumoniae (GC 1894): strain GC 1894; for MIC Streptococcus pyogenes (GC 4563): strain GC 4563; for MIC Streptococcus agalactiae (GC 4564): strain GC 4564; for MIC Streptococcus pneumoniae (GC 4565): strain GC 4565
Description: as §1, §2, §3

Escherichia coli = conditions: broth dilution, 18 hours at 35° C.; for MIC Escherichia coli (ATCC 25922): strain ATCC 25922; for MIC Escherichia coli (GC 4559): strain GC 4559; for MIC Escherichia coli (GC 4560): strain GC 4560
Procedure, shortened: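 Broth dilution in Muller-Hinton II medium per NCCLS standard M7-A2, with an inoculum of 5×10^5 CFU/mL and antibiotic tested over 64-0.06 μg/mL. MIC was taken as the lowest concentration inhibiting visible growth.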

Row | SMILES | MIC Staphylococcus aureus (ATCC 29213) (Staphylococcus sp.) [µg/mL] | MIC Staphylococcus aureus (GC 1131) (Staphylococcus sp.) [µg/mL] | MIC Staphylococcus aureus (GC 3051) (Staphylococcus sp.) [µg/mL] | MIC Staphylococcus aureus (GC 3053) (Staphylococcus sp.) [µg/mL] | MIC Staphylococcus aureus (GC 4541) (Staphylococcus sp.) [µg/mL] | MIC Staphylococcus aureus (GC 4542) (Staphylococcus sp.) [µg/mL] | MIC Staphylococcus aureus-SMITH (GC 4543) (Staphylococcus sp.) [µg/mL] | MIC Staphylococcus aureus (GC 4544) (Staphylococcus sp.) [µg/mL] | MIC Staphylococcus aureus (GC 4545) (Staphylococcus sp.) [µg/mL] | MIC Staphylococcus haemolyticus (GC 4546) (Staphylococcus sp.) [µg/mL] | MIC Coagulase Negative Staphylococcus (GC 4547) (Staphylococcus sp.) [µg/mL] | MIC Coagulase Negative Staphylococcus (GC 4548) (Staphylococcus sp.) [µg/mL] | MIC Coagulase Negative Staphylococcus (GC 4549) (Staphylococcus sp.) [µg/mL] | MIC Coagulase Negative Staphylococcus (GC 4551) (Staphylococcus sp.) [µg/mL] | MIC Coagulase Negative Staphylococcus (GC 6257) (Staphylococcus sp.) [µg/mL] | MIC Enterococcus faecalis (ATCC 29212) (Enterococcus sp.) [µg/mL] | MIC Enterococcus faecalis (GC 2242) (Enterococcus sp.) [µg/mL] | MIC Enterococcus faecium (GC 2243) (Enterococcus sp.) [µg/mL] | MIC Enterococcus faecalis (GC 2691) (Enterococcus sp.) [µg/mL] | MIC Enterococcus faecalis (GC 3059) (Enterococcus sp.) [µg/mL] | other results
1 | CC(c1ccccc1)C1NC(=O)CNC(=O)C(CO)NC(=O)C(C(O)C2CNC(=N)N2C2OC(CO)C(O)C(O)C2O)NC(=O)C(C(O)C2CNC(=N)N2)NC(=O)C(Cc2ccc3oc(-c4ccc(Br)cc4)nc3c2)NC1=O (stereo not drawn) [Example 27, Cyclo[3-[2-(4-bromophenyl)-1,3-benzoxazol-5-yl]alanyl-3-(2-iminoimidazolidin-4-yl)seryl-3-(3-hexopyranosyl-2-iminoimidazolidin-4-yl)serylserylglycyl-β-methylphenylalanyl]] | 8 (≈ 6.95 µM) | 16 (≈ 13.9 µM) | 16 (≈ 13.9 µM) | 8 (≈ 6.95 µM) | 16 (≈ 13.9 µM) | 8 (≈ 6.95 µM) | 8 (≈ 6.95 µM) | 8 (≈ 6.95 µM) | 8 (≈ 6.95 µM) | 4 (≈ 3.48 µM) | 8 (≈ 6.95 µM) | 8 (≈ 6.95 µM) | 8 (≈ 6.95 µM) | 8 (≈ 6.95 µM) | 4 (≈ 3.48 µM) | 32 (≈ 27.8 µM) | 32 (≈ 27.8 µM) | 32 (≈ 27.8 µM) | 32 (≈ 27.8 µM) | 32 (≈ 27.8 µM) | MIC Enterococcus faecalis (GC 4552) (Enterococcus sp.): 64 µg/mL (≈ 55.6 µM); MIC Enterococcus faecalis (GC 4553) (Enterococcus sp.): 16 µg/mL (≈ 13.9 µM); MIC Enterococcus faecalis (GC 4554) (Enterococcus sp.): 32 µg/mL (≈ 27.8 µM); MIC Enterococcus faecium (GC 4556) (Enterococcus sp.): 64 µg/mL (≈ 55.6 µM); MIC Enterococcus faecium (GC 4557) (Enterococcus sp.): 8 µg/mL (≈ 6.95 µM); MIC Enterococcus avium (GC 4558) (Enterococcus sp.): 16 µg/mL (≈ 13.9 µM); MIC Enterococcus faecalis (GC 6189) (Enterococcus sp.): 32 µg/mL (≈ 27.8 µM); MIC Streptococcus pneumoniae (ATCC 6301) (Streptococcus sp.): 16 µg/mL (≈ 13.9 µM); MIC Streptococcus pneumoniae (GC 1894) (Streptococcus sp.): 32 µg/mL (≈ 27.8 µM); MIC Streptococcus pyogenes (GC 4563) (Streptococcus sp.): 8 µg/mL (≈ 6.95 µM); MIC Streptococcus agalactiae (GC 4564) (Streptococcus sp.): 32 µg/mL (≈ 27.8 µM); MIC Streptococcus pneumoniae (GC 4565) (Streptococcus sp.): 16 µg/mL (≈ 13.9 µM); MIC Escherichia coli (ATCC 25922) (Escherichia coli): 32 µg/mL (≈ 27.8 µM); MIC Escherichia coli (GC 4559) (Escherichia coli): 32 µg/mL (≈ 27.8 µM); MIC Escherichia coli (GC 4560) (Escherichia coli): 8 µg/mL (≈ 6.95 µM)
2 | CC(c1ccccc1)C1NC(=O)CNC(=O)C(CO)NC(=O)C(C(O)C2CNC(=N)N2C2OC(CO)C(O)C(O)C2O)NC(=O)C(C(O)C2CNC(=N)N2)NC(=O)C(Cc2ccc3oc(-c4ccc(N(C)C)cc4)nc3c2)NC1=O (stereo not drawn) [Example 29, Cyclo[3-[2-[4-(dimethylamino)phenyl]-1,3-benzoxazol-5-yl]alanyl-3-(2-iminoimidazolidin-4-yl)-seryl-3-(3-hexopyranosyl-2-iminoimidazolidin-4-yl)serylserylglycyl-β-methylphenyl-alanyl]] | 8 (≈ 7.17 µM) | 8 (≈ 7.17 µM) | 8 (≈ 7.17 µM) | 8 (≈ 7.17 µM) | 8 (≈ 7.17 µM) | 8 (≈ 7.17 µM) | 8 (≈ 7.17 µM) | 8 (≈ 7.17 µM) | 8 (≈ 7.17 µM) | 4 (≈ 3.59 µM) | 4 (≈ 3.59 µM) | 4 (≈ 3.59 µM) | 2 (≈ 1.79 µM) | 8 (≈ 7.17 µM) | 4 (≈ 3.59 µM) | 32 (≈ 28.7 µM) | 32 (≈ 28.7 µM) | 16 (≈ 14.3 µM) | 32 (≈ 28.7 µM) | 64 (≈ 57.4 µM) | MIC Enterococcus faecalis (GC 4552) (Enterococcus sp.): 64 µg/mL (≈ 57.4 µM); MIC Enterococcus faecalis (GC 4553) (Enterococcus sp.): 16 µg/mL (≈ 14.3 µM); MIC Enterococcus faecalis (GC 4554) (Enterococcus sp.): 32 µg/mL (≈ 28.7 µM); MIC Enterococcus faecium (GC 4556) (Enterococcus sp.): 64 µg/mL (≈ 57.4 µM); MIC Enterococcus faecium (GC 4557) (Enterococcus sp.): 8 µg/mL (≈ 7.17 µM); MIC Enterococcus avium (GC 4558) (Enterococcus sp.): 16 µg/mL (≈ 14.3 µM); MIC Enterococcus faecalis (GC 6189) (Enterococcus sp.): 32 µg/mL (≈ 28.7 µM); MIC Streptococcus pneumoniae (ATCC 6301) (Streptococcus sp.): 32 µg/mL (≈ 28.7 µM); MIC Streptococcus pneumoniae (GC 1894) (Streptococcus sp.): 32 µg/mL (≈ 28.7 µM); MIC Streptococcus pyogenes (GC 4563) (Streptococcus sp.): 16 µg/mL (≈ 14.3 µM); MIC Streptococcus agalactiae (GC 4564) (Streptococcus sp.): 32 µg/mL (≈ 28.7 µM); MIC Streptococcus pneumoniae (GC 4565) (Streptococcus sp.): 32 µg/mL (≈ 28.7 µM); MIC Escherichia coli (ATCC 25922) (Escherichia coli): 16 µg/mL (≈ 14.3 µM); MIC Escherichia coli (GC 4559) (Escherichia coli): 16 µg/mL (≈ 14.3 µM); MIC Escherichia coli (GC 4560) (Escherichia coli): 4 µg/mL (≈ 3.59 µM)
